BindingDB's records for doi:10.1016/j.bmcl.2009.07.031 (Merck Research Laboratory, 2009)

Tests used:
[1] = Inhibition of HIV1 reverse transcriptase Y181C mutant by SPA assay
[2] = Inhibition of HIV1 reverse transcriptase by SPA assay

SMILES | IC50 [1] [nM] | IC50 [2] [nM]
Cc1ccc2c(c1)CCCN2C(=O)SCC(=O)Nc1ccc(S(N)(=O)=O)cc1Cl | 1300 | 
NS(=O)(=O)c1ccc(NC(=O)CCC(=O)N2CCCc3cc(Cl)cc(Cl)c32)c(Cl)c1 |  | 194
N#Cc1ccc(NC(=O)CSC(=O)N2CCCc3cc(Cl)cc(Cl)c32)c(Cl)c1 | 95 | 7
NS(=O)(=O)c1ccc(NC(=O)CSC(=O)N2CCCc3cccc(Cl)c32)c(Cl)c1 | 31 | 2
NS(=O)(=O)c1ccc(NC(=O)COC(=O)N2CCCc3cc(Cl)cc(Cl)c32)c(Cl)c1 | 116 | 19
Cc1cc(C)c(N(C)C(=O)SCC(=O)Nc2ccc(S(N)(=O)=O)cc2Cl)c(C)c1 | 80 | 8
NCCCNC(=O)c1ccc(NC(=O)CSC(=O)N2CCCc3cc(Cl)cc(Cl)c32)c(Cl)c1 | 7 | 2
Cc1cccc2c1N(C(=O)SCC(=O)Nc1ccc(S(N)(=O)=O)cc1Cl)CCC2 | 61 | 6
O=C(CSC(=O)N1CCCc2cc(Cl)cc(Cl)c21)Nc1ccc(C(=O)NCc2ccccc2)cc1Cl | 4 | 2
CS(=O)(=O)c1ccc(NC(=O)CSC(=O)N2CCCc3cc(Cl)cc(Cl)c32)c(Cl)c1 | 11 | 4
NS(=O)(=O)c1ccc(NC(=O)CNC(=O)N2CCCc3cc(Cl)cc(Cl)c32)c(Cl)c1 |  | 336
O=C(CSC(=O)N1CCCc2cc(Cl)cc(Cl)c21)Nc1ccccc1Cl | 175 | 4
NS(=O)(=O)c1ccc(NC(=O)CSC(=O)N2CCCc3cc(Cl)ccc32)c(Cl)c1 |  | 8
NS(=O)(=O)c1ccc(NC(=O)CSC(=O)N2CCCc3cc(Cl)cc(Cl)c32)c(Cl)c1 | 4 | 
